Laboratory results as given in US8741889B2, “Method of treating non-small cell lung cancer and colon cancer with gamma-secretase inhibitor” (Hoffmann-La Roche Inc, priority 2008, dated 2014).
Read-outs that look alike come from different tables or passages of the source.

Key:
[1] = tested on: MiaPaca2 human pancreatic carcinoma xenografts; test: Antitumor efficacy in MiaPaca2 pancreatic xenografts in nude mice; assay type: in vivo; conditions: day 37
Method: Female (athymic nu/nu) nude mice were obtained from Charles River Laboratories (Wilmington, Mass.), while female SCID-beige mice were purchased from Taconic (Germantown, N.Y.). Mice were used when they were approximately 8-12 weeks old (nudes) or 8-10 weeks old (SCID-beige), and weighed approximately 23-25 grams. The health of all animals was determined daily by gross observation of experimental animals and by the analyses of blood samples of sentinel animals that were housed on the shared shelf racks. All animals were allowed to acclimate and recover from any shipping related stress for a minimum of 72 hours prior to experimental use. Autoclaved water and irradiated food [5058-ms Pico chow (mouse) Purina, Richmond, Ind.] were provided ad libitum, and the animals were maintained on a 12 hour light and dark cycle. Cages, bedding and water bottles were autoclaved before use and were changed weekly. MiaPaca2, AsPC1 and BxPC3 human pancreatic carcinoma cells were purchased from ATCC (Manassas, Va.). BxPC3 and AsPC1 cells were grown in RPMI medium and MiaPaca2 cells were grown in Dulbecco's Modified Essential Medium (DMEM). All culture media were supplemented with 10% (v/v) FBS and 1% (v/v) […]. […] SCID-biege mice were implanted se with 5×10^6 BxPC3 cells in a 1:1 mixture of matrigel:PBS in a volume of 0.2 ml per mouse in the right hind flank on May 22, 2007. […] Formulated compound and vehicle were stored at 4° C. and prepared weekly. The suspension was mixed vigorously prior to administration. Gemcitabine (Gemzar®, Eli Lilly and Company, Indianapolis, Ind., USA) was reconstituted with sterile saline to yield a stock solution of 38 mg/ml for the entire 3-4 week study. […] Nude mice implanted with MiaPaca2 or AsPC1 xenografts were randomized on day 17 and day 9 post cell implant, respectively. SCID-beige mice bearing BxPC3 xenografts were randomized 8 days post implant. […] Treatment for the MiaPaca2 study began on Feb. […] For the MiaPaca2 and AsPC1 studies, qd Compound (1) suspension or q3d gemcitabine treatment ended on day 37 post tumor cell implant, whereas for the BxPC3 study, qd Compound (1) suspension or q3d gemcitabine treatment ended on day 35 post tumor cell implant. For intermittent dosing of Compound (1) suspension in the MiaPaca2 study using the 7+/7−/7+ schedule, treatment ended on day 23, was reinitiated on day 31, and ended day 37. In the combination groups Compound (1) suspension was given sequentially with gemcitabine using the 7+/7−/7+ schedule so that Compound (1) was dosed daily only during the first and third weeks, whereas gemcitabine was dosed q3d during the second week only. Efficacy data was graphically represented as the mean tumor volume+standard error of the mean (SEM). Tumor volumes of treated groups were presented as percentages of tumor volumes of the control groups (% T/C), using the formula: 100×((T−T0)/(C−C0)), where T represented mean tumor volume of a treated group on a specific day during the experiment, T0 represented mean tumor volume of the same […] on the first day of treatment; C represented mean tumor volume of a control group on the specific day during the experiment, and C0 represented mean tumor volume of the same treated group on the first day of treatment. Tumor volume (in cubic millimeters) was calculated using the ellipsoid formula: (D×(d2))/2 where ‘D’ represents the large diameter of the tumor, and ‘d’ represents the small diameter. In some cases, tumor regression and/or percent change in tumor volume was calculated using the formula: ((T−T0)/T0)×100 where ‘T’ represents mean tumor volume of the treated group at a particular day, and ‘T0’ represents mean tumor volume of the same treated group at initiation of treatment. Statistical analysis was determined by the rank sum test and One Way Anova and a post-hoc Bonferroni t-test (SigmaStat, version 2.0, Jandel Scientific, San Francisco, Calif.). […]

in vivo = test: in vivo
Method: Treatment began on Sep. 12, 2006 (day 26 post tumor cell implant). Compound (1) and vehicle were dosed as a suspension using a sterile 1 cc syringe and 18-gauge gavage needle (0.2 ml/animal) once (qd) or twice per day (bid) 8 hours apart for either 7, 14 or 21 days out of a 21 day schedule. For animals dosed for 7 days (7+/14−), treatment ended on Sep. 19, 2006 (day 33 post tumor cell implant). These mice were re-treated on day 67 with the same dose of compound (1) for another 7 days until day 74. For animals dose for 14 days (14+/7−) treatment ended on Sep. 26, 2006 (day 40 post tumor cell implant), and for animals dosed for 21 days, treatment ended on Oct. 3, 2006 (day 47 post tumor cell implant).
(§1) Weight loss was graphically represented as percent change in mean group body weight, using the formula: ((W−W0)/W0)×100, where ‘W’ represents mean body weight of the treated group at a particular day, and ‘W0’ represents mean body weight of the same treated group at initiation of treatment.

[2] = mouse, in vivo, 10 mg/kg
Method: Treatment for the MiaPaca2 study began on Feb. 8, 2007 (day 17 post tumor implant), for AsPC1 on Mar. 23, 2007 (day 9 post tumor implant), and for the BxPC3 study on May 30, 2007 (day 8 post tumor implant). Oral vehicle or the Compound (1) suspension was dosed using a sterile 1 cc syringe and 18-gauge gavage needle (0.2 ml/animal) once daily (qd) for 21-28 days, or using an intermittent schedule (7 days on, 7 days off, 7 days on (7+/7−/7+), 7 days on, 7 days off (7+/7−), 3 days on, 4 days off (3+/4−), or 14 days on, 14 days off (14+/14−)). Gemcitabine was administered to the mice intraperitoneally (ip) q3d (every 3 days) using a 1 cc syringe and 26 gauge needle.
as §1

[3] = Plasma drug exposure in nude mice; assay type: in vivo; conditions: for Cmax / AUC(0-t): po, 10 mg/kg
Method: Plasma samples were prepared and analyzed for compound (1) by LC/MS/MS. Mean plasma concentrations were calculated from 2 animals/group/time point. Plasma samples with concentration below the limit of quantification (<12.5 ng/ml) were set to zero. The pharmacokinetic parameters were estimated from the mean plasma concentration data. Sampling times were reported as nominal time. The pharmacokinetic parameters reported are the maximum plasma concentration (Cmax), the area under the plasma concentration-time curve from zero to 8 hr (AUC0-8 hr), and dose normalized AUC (AUC0-8 hr/Dose). The Cmax values were taken directly from the plasma concentration-time profiles […] without any extrapolation. The AUC was calculated using the linear trapezoidal rule.

[4] = nude, mouse, in vivo, maximum tolerated dose (MTD)

CC(C)(C(=O)NCC(F)(F)C(F)(F)F)C(=O)N[C@@H]1C(=O)Nc2ccccc2-c2ccccc21 [Compound (1), 2,2-Dimethyl-N—((S)-6-oxo-6,7-dihydro-5H-dibenzo[b,d]azepin-7-yl)-N′-(2,2,3,3,3-pentafluoro-propyl)-malonamide]
% TGI ([1]; 1 mg/kg po qd × 21 days): 39%
% TGI ([1]; 3 mg/kg po qd × 21 days): 42%
% TGI ([1]; 10 mg/kg po qd × 21 days): 53%
% TGI ([1]; 10 mg/kg po, 7+/7−/7+): 51%
% TGI ([1]; 30 mg/kg po, 7+/7−/7+): 58%
% TGI ([1]; 60 mg/kg po, 7+/7−/7+): 48%
animal deaths (in vivo; 30 mg/kg bid for 21 days, 10/group): two
mice died (in vivo; 60 mg/kg bid for 14 days, 10/group): four
mice died (in vivo; 60 mg/kg bid for 21 days, 10/group): seven
mice died (in vivo; 60 mg/kg qd for 21 days, 10/group): three
maximum tolerated dose (MTD) (in vivo; nude, mouse, in vivo, 21 days): 10 mg/kg
MTD at 7 days (in vivo; [4]): 60 mg/kg
MTD at 14 days (in vivo; [4]): 30 mg/kg
mice with >20% body weight loss deemed toxicity-related [2]: one
dose proportionality of plasma exposure ([3]; independent PK study in nude mice, up to 30 mg/kg): excellent dose proportionality
oral bioavailability ([3]; mouse): moderate to high
Cmax ([3]; nude, mouse, plasma, 10 mg/kg po qd, Day 21 (chronic dosing)): 708 ng/mL
AUC(0-t) ([3]; nude, mouse, plasma, 10 mg/kg po qd, Day 21 (chronic dosing), read-out: AUC0-8 hr): 923 ng·h/mL
Cmax ([3]; nude, mouse, plasma, 10 mg/kg po, Day 1 (single dose, naïve mice)): 559 ng/mL
AUC(0-t) ([3]; nude, mouse, plasma, 10 mg/kg po, Day 1 (single dose, naïve mice), read-out: AUC0-8 hr): 1280 ng·h/mL
AUC(0-t) ([3]; nude, mouse, plasma, oral daily dosing of 10 mg/kg, read-out: Exposures (AUC24h) producing efficacy): ~1100 ng·h/mL
AUC ([3]; nude, mouse, plasma, oral daily dosing of 10 mg/kg, read-out: Exposures producing efficacy (AUC24/day)): ~1100 ng·h/mL
